These results are taken from patent US20230031406A1, “COMPOUNDS AND COMPOSITIONS FOR TREATING CONDITIONS ASSOCIATED WITH NLRP ACTIVITY” (Novartis AG, priority 2018, published 2023).

Each structure is given as a SMILES string. Where two headings read alike, the source gives them in different places. Where only a bound is given, the exact number is not on record here.

This assay relates to PMA-differentiated THP-1 cells. The assay can be described thus: IL-1β production in PMA-differentiated THP-1 cells stimulated with gramicidin (hTHP-1 assay containing 2% fetal bovine serum; Procedures 1 and 2). As to conditions: 2% fetal bovine serum. The assay is classed as cell-based, human. Put shortly: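 Human monocytic THP-1 cells, matured overnight with PMA at 20 ng/ml, are seeded in low-serum (2% FBS) RPMI. Test compounds, at final concentrations from 100 down to 0.0017 μM, precede gramicidin (5 μM, 2 h) by one hour. Released IL-1β is then determined by HTRF.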

Where [1] appears, read: Table B2, class symbols, read-out: hTHP-1 IC50.
Where [2] appears, read: Table B4, class symbols, read-out: hTHP-1 IC50.
[3] abbreviates: Homo sapiens, THP-1, Table B2, class symbols, read-out: hTHP-1 IC50.
The mark [4] stands for this setting: Homo sapiens, THP-1, Table B3, hTHP-1 assay, class symbols, read-out: IC50.
Where [5] appears, read: Table B1, class symbols, read-out: Average IC50 of compounds in hTHP-1 assay: hTHP-1 IC50.
Setting [6] is: Homo sapiens, THP-1, Table B1, numeric bounds, read-out: Average IC50 of compounds in hTHP-1 assay: hTHP-1 IC50.

Regarding `CC(C)(O)c1cncc(S(N)(=O)=NC(=O)Nc2c3c(nc4c2CCC4(C)C)CCC3)c1` (single isomer, unassigned) [Compound 684b, (S) or (R)-N′-((3,3-dimethyl-1,2,3,5,6,7-hexahydrodicyclopenta [b,e]pyridin-8-yl)carbamoyl)-5-(2-hydroxypropan-2-yl)pyridine-3-sulfonimidamide], the IC50 (as a rule, the concentration at which inhibition is half-maximal) under setting [1] lay in the range of 5000 to 30000 nM.
With `CCn1cc(F)c(S(N)(=O)=NC(=O)Nc2c3c(nc(C)c2-c2ccccc2)CCC3)n1` (single isomer, unassigned) [Example 770, (S) or (R)-1-ethyl-4-fluoro-N′-((2-methyl-3-phenyl-6,7-dihydro-5H-cyclopenta[b]pyridin-4-yl)carbamoyl)-1H-pyrazole-3-sulfonimidamide], under setting [2], the IC50 lay in the range of 40 to 200 nM.
Regarding `CCn1ccc([S@@](N)(=O)=NC(=O)Nc2c3c(nc4c2CCC42CC2)CCC3)n1` [Compound 604a], the IC50 under setting [3] was in the range of 5000 to 30000 nM.
With `CCn1cc(F)c(S(N)(=O)=NC(=O)Nc2c(C)c(CC(F)(F)F)nc3c2CCC3)n1` (single isomer, unassigned) [Example 717, (R) or (S)-1-ethyl-4-fluoro-N′-((3-methyl-2-(2,2,2-trifluoroethyl)-6,7-dihydro-5H-cyclopenta[b]pyridin-4-yl)carbamoyl)-1H-pyrazole-3-sulfonimidamide], the IC50 under setting [4] was in the range of 1000 to 5000 nM.
Take `CC(C)(O)c1cc(F)c(S(N)(=O)=NC(=O)Nc2c3c(nc4c2CCC4)CCC3)s1` (single isomer, unassigned) [Compound 105b, (S) or (R)-3-fluoro-N′-((1,2,3,5,6,7-hexahydro-dicyclopenta[b,e]pyridin-8-yl)carbamoyl)-5-(2-hydroxypropan-2-yl)thio-phene-2-sulfonimidamide]: under setting [5], the IC50 fell in the range of 1000 to 5000 nM.
As for `Cc1c(C(C)(C)C)nc2c(c1NC(=O)N=S(N)(=O)c1cc(C(C)(C)O)cs1)CCC2` (centres unmarked) [Compound 657, N′-((2-(tert-butyl)-3-methyl-6,7-dihydro-5H-cyclopenta[b]pyridin-4-yl)carbamoyl)-4-(2-hydroxypropan-2-yl)thiophene-2-sulfonimidamide], the IC50 under setting [3] was in the range of 5000 to 30000 nM.
In the case of `CC(C)(O)c1ncc(S(N)(=O)=NC(=O)Nc2c3c(nc4c2CCC4)CCCC3)s1` (single isomer, unassigned) [Compound 161b, (R) or (S)-N′-((2,3,5,6,7,8-hexahydro-1H-cyclopenta[b]quinolin-9-yl)carbamoyl)-2-(2-hydroxypropan-2-yl)thiazole-5-sulfonimidamide], the IC50 under setting [5] lay in the range of 1000 to 5000 nM.
The same measure, in the same setting: under `CC(C)(O)c1cnc(S(N)(=O)=NC(=O)Nc2c3c(nc4c2CCC4)CCC3)s1` (single isomer, unassigned) [Compound 167b, (R) or (S)-N′-((1,2,3,5,6,7-hexahydrodicyclo-penta[b,e]pyridin-8-yl)carbamoyl)-5-(2-hydroxypropan-2-yl)thiazole-2-sulfonimidamide] stands 200 to 1000 nM; under `CC1CCc2c1nc1c(c2NC(=O)N=S(N)(=O)c2sc(C(C)(C)O)cc2F)CCC1` (single isomer, unassigned) [Compound 103bb, (R,S) or (R,R)-3-fluoro-5-(2-hydroxypropan-2-yl)-N′-((3-methyl-1,2,3,5,6,7-hexahydrodicyclo-penta[b,e]pyridin-8-yl)carbamoyl)thiophene-2-sulfonimidamide], 200 to 1000 nM.
Consider `Cc1nc2c(c(NC(=O)N=S(N)(=O)c3cnc(C(C)(C)O)s3)c1C(C)C)CCC2` (single isomer, unassigned) [Compound 116a, (S) or (R)-2-(2-hydroxypropan-2-yl)-N′-((3-isopropyl-2-methyl-6,7-dihydro-5H-cyclopenta[b]pyridin-4-yl)carbamoyl)thiazole-5-sulfonimidamide], for which the IC50 under setting [6] is over 30000 nM.
In the case of `CC(C)(O)c1cnc(S(N)(=O)=NC(=O)Nc2c3c(nc4c2CCC4)CCC3)s1` (centres unmarked) [Compound 167], the IC50 (Homo sapiens, THP-1, Table B1, class symbols, read-out: Average IC50 of compounds in hTHP-1 assay: hTHP-1 IC50) fell in the range of 1000 to 5000 nM.
Turning to `Cc1c(C(F)(F)F)nc2c(c1NC(=O)N=S(N)(=O)c1cc(C(C)(C)O)cs1)CCC2` (single isomer, unassigned) [Compound 624b, (R) or (S)-4-(2-Hydroxypropan-2-yl)-N′-((3-methyl-2-(trifluoromethyl)-6,7-dihydro-5H-cyclopenta[b]pyridin-4-yl)carbamoyl) thiophene-2-sulfonimidamide], the IC50 under setting [1] is 40 to 200 nM.
Consider `CCn1nc(S(N)(=O)=NC(=O)Nc2c3c(nc4c2CC[C@H]4C)CCC3)cc1CO` (stereo partly drawn) [Example 590, 1-Ethyl-5-(hydroxymethyl)-N′-(((R)-3-methyl-1,2,3,5,6,7-hexahydrodicyclopenta[b,e]pyridin-8-yl)carbamoyl)-1H-pyrazole-3-sulfonimidamide], for which, under setting [4], the IC50 is 1000 to 5000 nM.
`CCc1nc2c(c(NC(=O)N=S(N)(=O)c3cnc(C(C)(C)O)s3)c1C1CC1)CCC2` (centres unmarked) [Compound 630, N′-((3-cyclopropyl-2-ethyl-6,7-dihydro-5H-cyclopenta[b]pyridin-4-yl)carbamoyl)-2-(2-hydroxypropan-2-yl)thiazole-5-sulfonimidamide]: the IC50 under setting [3] lay in the range of 200 to 1000 nM.
For `CCn1cc(F)c(S(N)(=O)=NC(=O)Nc2c3c(nc(C(F)(F)F)c2C2CC2)CCC3)n1` (single isomer, unassigned) [Example 773, (R) or (S)-N′-((3-cyclopropyl-2-(trifluoromethyl)-6,7-dihydro-5H-cyclopenta[b]pyridin-4-yl)carbamoyl)-1-ethyl-4-fluoro-1H-pyrazole-3-sulfonimidamide], the half-inhibitory concentration (IC50) under setting [2] lay within 40 to 200 nM.
With `CC(C)n1nc(S(N)(=O)=NC(=O)Nc2c3c(nc4c2CCC4(C)C)CCC3)cc1C(C)(C)O` (single isomer, unassigned) [Compound 615b, (R) or (S)-N′-((3,3-dimethyl-1,2,3,5,6,7-hexahydrodicyclopenta [b,e]pyridin-8-yl)carbamoyl)-5-(2-hydroxypropan-2-yl)-1-isopropyl-1H-pyrazole-3-sulfonimidamide], the IC50 under setting [3] lay within 1000 to 5000 nM.
With `CC1CCc2c1nc1c(c2NC(=O)N=S(N)(=O)c2cc(C(C)(C)O)cs2)CCC1C` (centres unmarked) [131f^], the IC50 under setting [5] lay within 1000 to 5000 nM.
Take `CC(C)c1cnc(F)c(C(C)C)c1NC(=O)N=S(N)(=O)c1cnc(C(C)(C)O)s1` (single isomer, unassigned) [Compound 115b, (R) or (S)-N′-((2-fluoro-3,5-diisopropylpyridin-4-yl)carbamoyl)-2-(2-hydroxypropan-2-yl)thiazole-5-sulfonimidamide]: the IC50 under setting [1] was 1000 to 5000 nM.
Turning to `Cc1c(C(F)(F)F)nc2c(c1NC(=O)N=S(N)(=O)c1cnn3c1OCCC3)CCC2` (centres unmarked) [Example 565, N′-((3-methyl-2-(trifluoromethyl)-6,7-dihydro-5H-cyclopenta [b]pyridin-4-yl)carbamoyl)-6,7-dihydro-5H-pyrazolo[5,1-b][1,3]oxazine-3-sulfonimidamide], under setting [4], the IC50 was in the range of 5000 to 30000 nM.
Regarding `Cc1c(C(F)(F)F)nc2c(c1NC(=O)N=S(N)(=O)c1cnc(C(C)(C)O)s1)CCC2` (centres unmarked) [Compound 661, 2-(2-Hydroxypropan-2-yl)-N′-((3-methyl-2-(trifluoromethyl)-6,7-dihydro-5H-cyclopenta[b]pyridin-4-yl)carbamoyl)thiazole-5-sulfonimidamide], the IC50 under setting [3] lay within 1000 to 5000 nM.
Regarding `CC(C)c1ncc(F)c(C(C)C)c1NC(=O)N=S(N)(=O)c1ccc(CN(C)C)cc1` (single isomer, unassigned) [Compound 132b, (S) or (R)-4-((dimethyl-amino)methyl)-N′-((5-fluoro-2,4-diisopropylpyridin-3-yl)carbamoyl)benzene-sulfonimidamide], under setting [6], the IC50 is over 30000 nM.
In the case of `CC(C)c1cnc(F)c(C(C)C)c1NC(=O)N=S(N)(=O)c1cnc(C(C)(C)O)s1` (single isomer, unassigned) [Compound 115a, (S) or (R)-N′-((2-fluoro-3,5-diisopropylpyridin-4-yl)carbamoyl)-2-(2-hydroxypropan-2-yl)thiazole-5-sulfonimidamide], under setting [1], the half-inhibitory concentration (IC50) was 5000 to 30000 nM.
The same measure, in the same setting: under `CCc1c(C(F)(F)F)nc2c(c1NC(=O)N=S(N)(=O)c1sc(C(C)(C)O)cc1F)CCC2` (single isomer, unassigned) [Compound 611a, (S) or (R)-N′-((3-ethyl-2-(trifluoromethyl)-6,7-dihydro-5H-cyclopenta[b]pyridin-4-yl)carbamoyl)-3-fluoro-5-(2-hydroxypropan-2-yl)thiophene-2-sulfonimidamide] stands 5000 to 30000 nM.
Consider `CCc1nc2c(c(NC(=O)N=S(N)(=O)c3cc(C(C)(C)O)cs3)c1C1CC1)CCC2` (centres unmarked) [Compound 654, N′-((3-cyclopropyl-2-ethyl-6,7-dihydro-5H-cyclopenta[b]pyridin-4-yl)carbamoyl)-4-(2-hydroxypropan-2-yl)thiophene-2-sulfonimidamide], for which the IC50 under setting [3] lay within 200 to 1000 nM.
Take `C[C@@H]1CCc2c1nc1c(c2NC(=O)N=S(N)(=O)c2ccn(C)n2)CCC1` (single isomer, unassigned) [Compound 639a, (S) or (R)-1-Methyl-N′-(((R)-3-methyl-1,2,3,5,6,7-hexahydrodicyclopenta [b,e]pyridin-8-yl)carbamoyl)-1H-pyrazole-3-sulfonimidamide]: for the setting “Homo sapiens, THP-1, Table B2, numeric bounds, read-out: hTHP-1 IC50”, the IC50 is over 30000 nM.
In the case of `Cc1c(C(F)(F)F)nc2c(c1NC(=O)N=S(N)(=O)c1cnc(C(C)(O)CO)s1)CCC2` (single isomer, unassigned) [Compound 605a, (S, RS) or (R, RS) 2-(-1,2-dihydroxypropan-2-yl)-N′-((3-methyl-2-(trifluoromethyl)-6,7-dihydro-5H-cyclopenta[b]pyridin-4-yl)carbamoyl)thiazole-5-sulfonimidamide], the IC50 under setting [1] was in the range of 200 to 1000 nM.
